Calls of active or inactive are those of the source. The calls are words filed in the database; no cut-off is given here.

Assay [1] concerns Echinochloa crus-galli. Nature of the assay: Herbicidal activity against Echinochloa crus-galli (barnyard grass) assessed as plant bleaching effect at 100 ug/mL. The settings on record: (L.) Beauv. The class given is functional, organism-based.
The subject of assay [2] is Echinochloa crus-galli. Nature of the assay: Herbicidal activity against Echinochloa crus-galli (barnyard grass) assessed as growth inhibition at 100 ug/mL. The class given is functional. The settings on record: (L.) Beauv, read-out: GI.
Assay [3] relates to Echinochloa crus-galli. Briefly: Herbicidal activity against Echinochloa crus-galli (barnyard grass) assessed as growth inhibition at 10 ug/mL. The class given is functional. The settings on record: (L.) Beauv, read-out: GI.
The subject of assay [4] is Brassica napus. Briefly: Herbicidal activity against Brassica napus (oilseed rape) assessed as growth inhibition at 100 ug/mL. The class given is functional. The settings on record: read-out: GI.
For assay [5], the system named is Brassica napus. Briefly: Herbicidal activity against Brassica napus (oilseed rape) assessed as growth inhibition at 10 ug/mL. The settings on record: read-out: GI. The format is functional.

On to `CC(C)(C)N1CC(=O)/C(=C(/O)c2ccc(Cl)cc2)C1=O`, for which the outcome in the assay on Echinochloa crus-galli [1] was inactive. The figures for the inhibition of growth at 100 µg/mL in the assay with Echinochloa crus-galli [2] and with Brassica napus [4] were 20.8% and 98%, respectively. Besides, the inhibition of growth at 10 µg/mL is 0.4% in the assay on Echinochloa crus-galli [3] and 13.8% in the assay with Brassica napus [5].
As to `CN1CC(=O)/C(=C(/O)c2cccc([N+](=O)[O-])c2)C1=O`, the outcome with Echinochloa crus-galli [1] was inactive. In addition, the inhibition of growth at 100 µg/mL is 42.8% in the assay with Echinochloa crus-galli [2] and 22.4% in the assay with Brassica napus [4]. Also, the inhibition of growth at 10 µg/mL in the assay on Echinochloa crus-galli [3] is 5.2%; in the assay with Brassica napus [5], 0%.
`CC(C)N1CC(=O)/C(=C(/O)c2ccc([N+](=O)[O-])cc2)C1=O`: in the assay on Echinochloa crus-galli [1], the outcome was inactive. Also, the inhibition of growth at 100 µg/mL in the assay with Echinochloa crus-galli [2] is 1.6%; in the assay with Brassica napus [4], 34.2%. Also, the inhibition of growth at 10 µg/mL came out at 0% in the assay on Echinochloa crus-galli [3] and 4.5% in the assay with Brassica napus [5].
On to `COc1ccc(/C(O)=C2\C(=O)CN(C(C)C)C2=O)cc1`, for which, in the assay on Echinochloa crus-galli [1], the outcome was Active. The results for the inhibition of growth at 100 µg/mL in the assay with Echinochloa crus-galli [2] and with Brassica napus [4] were 80% and 71%, respectively. Also, the inhibition of growth at 10 µg/mL was found to be 79.6% in the assay with Echinochloa crus-galli [3] and 11.9% in the assay with Brassica napus [5].
On to `Cc1cccc(/C(O)=C2\C(=O)CN(C(C)(C)C)C2=O)c1`, for which, in the assay on Echinochloa crus-galli [1], the result was inactive. Further, the inhibition of growth at 100 µg/mL in the assay on Echinochloa crus-galli [2] was found to be 48.5%; in the assay with Brassica napus [4] it was 85%. The inhibition of growth at 10 µg/mL with Echinochloa crus-galli [3] amounted to 4.9%; in the assay with Brassica napus [5] it was 24.9%.
For the molecule `CC(C)N1CC(=O)/C(=C(/O)c2ccc(Cl)cc2)C1=O`, the result with Echinochloa crus-galli [1] was Active. Further, the inhibition of growth at 100 µg/mL is 68% in the assay with Echinochloa crus-galli [2] and 77.2% with Brassica napus [4]. Further, the inhibition of growth at 10 µg/mL in the assay on Echinochloa crus-galli [3] was 25.1%; with Brassica napus [5], 16%.
For `COc1ccc(/C(O)=C2\C(=O)CN(C)C2=O)cc1`, in that order: “Active”, 78.8%, 50.7%, 16.2% and 7.9%.
On to `CN1CC(=O)/C(=C(/O)c2ccc(Cl)cc2)C1=O`, for which the outcome in the assay on Echinochloa crus-galli [1] was inactive. For the same molecule, the inhibition of growth at 100 µg/mL in the assay with Echinochloa crus-galli [2] came to 50.1%; in the assay with Brassica napus [4], 90.5%. The inhibition of growth at 10 µg/mL was 9.4% with Echinochloa crus-galli [3] and 15.8% in the assay with Brassica napus [5].
As to `Cc1ccc(/C(O)=C2\C(=O)CN(C(C)C)C2=O)cc1`, the result in the assay with Echinochloa crus-galli [1] was Active. Besides, the values for the inhibition of growth at 100 µg/mL in the assay with Echinochloa crus-galli [2] and in the assay with Brassica napus [4] were 78.4% and 86.4%, respectively. Further, the inhibition of growth at 10 µg/mL was 76.8% in the assay on Echinochloa crus-galli [3] and 8.1% in the assay with Brassica napus [5].
On to `Cc1ccccc1/C(O)=C1\C(=O)CN(C(C)(C)C)C1=O`, for which the outcome in the assay with Echinochloa crus-galli [1] was Active. Also, the inhibition of growth at 100 µg/mL in the assay on Echinochloa crus-galli [2] was 74.4%; in the assay with Brassica napus [4], 74.9%. Moreover, the inhibition of growth at 10 µg/mL in the assay on Echinochloa crus-galli [3] was 63.6%; with Brassica napus [5], 21.1%.
For `CN1CC(=O)/C(=C(/O)c2ccc([N+](=O)[O-])cc2)C1=O`, in that order: “inactive”, 51.9%, 40.9%, 9% and 5.1%.
For `Cc1ccccc1/C(O)=C1\C(=O)CN(C)C1=O`, in that order: “Active”, 78.3%, 44.4%, 31.2% and 0%.
The corresponding values for `Cc1cccc(/C(O)=C2\C(=O)CN(C(C)C)C2=O)c1` are “Active”, 75.5%, 82.1%, 49.2% and 3.3%.
As for `Cc1cccc(/C(O)=C2\C(=O)CN(C)C2=O)c1`, the result in the assay with Echinochloa crus-galli [1] was Active. In addition, the inhibition of growth at 100 µg/mL in the assay with Echinochloa crus-galli [2] was 68.3%; in the assay with Brassica napus [4], 64%. The inhibition of growth at 10 µg/mL in the assay on Echinochloa crus-galli [3] was found to be 25.3%; in the assay on Brassica napus [5], 14%.
Regarding `COc1ccccc1/C(O)=C1\C(=O)CN(C(C)C)C1=O`, in the assay with Echinochloa crus-galli [1], the outcome was Active. The inhibition of growth at 100 µg/mL in the assay on Echinochloa crus-galli [2] was 78.1%; in the assay with Brassica napus [4], 58.7%. In addition, the results for the inhibition of growth at 10 µg/mL in the assay on Echinochloa crus-galli [3] and with Brassica napus [5] were 77.3% and 3%, respectively.
On to `COc1ccccc1/C(O)=C1\C(=O)CN(C(C)(C)C)C1=O`, for which, in the assay with Echinochloa crus-galli [1], the outcome was Active. The inhibition of growth at 100 µg/mL is 82.9% in the assay with Echinochloa crus-galli [2] and 69.5% with Brassica napus [4]. The inhibition of growth at 10 µg/mL in the assay on Echinochloa crus-galli [3] was 74.9%; in the assay on Brassica napus [5] it was 41.2%.
As for `Cc1ccccc1/C(O)=C1\C(=O)CN(C(C)C)C1=O`, the outcome in the assay on Echinochloa crus-galli [1] was Active. Besides, the figures for the inhibition of growth at 100 µg/mL in the assay with Echinochloa crus-galli [2] and with Brassica napus [4] were 77.3% and 62.4%, respectively. The inhibition of growth at 10 µg/mL came to 76.9% with Echinochloa crus-galli [3] and 15.2% in the assay on Brassica napus [5].
In the case of `CS(=O)(=O)c1ccc(C(=O)C2C(=O)CCCC2=O)c(Cl)c1` [SULCOTRIONE], the result with Echinochloa crus-galli [1] was Active. Further, the inhibition of growth at 100 µg/mL in the assay with Echinochloa crus-galli [2] was found to be 45.1%; with Brassica napus [4], 38.1%. Further, the results for the inhibition of growth at 10 µg/mL with Echinochloa crus-galli [3] and with Brassica napus [5] were 29.4% and 3.5%, respectively.
`CC(C)(C)N1CC(=O)/C(=C(/O)c2cccc([N+](=O)[O-])c2)C1=O`: the outcome in the assay on Echinochloa crus-galli [1] was inactive. Further, the inhibition of growth at 100 µg/mL came out at 0.5% in the assay with Echinochloa crus-galli [2] and 80.1% in the assay on Brassica napus [4]. For the same molecule, the figures for the inhibition of growth at 10 µg/mL with Echinochloa crus-galli [3] and in the assay with Brassica napus [5] were 0% and 22.1%, respectively.
Take `Cc1ccc(/C(O)=C2\C(=O)CN(C(C)(C)C)C2=O)cc1`: in the assay with Echinochloa crus-galli [1], the outcome was inactive. Besides, the inhibition of growth at 100 µg/mL in the assay with Echinochloa crus-galli [2] worked out at 48%; with Brassica napus [4] it was 88.1%. Besides, the inhibition of growth at 10 µg/mL was found to be 36.3% in the assay on Echinochloa crus-galli [3] and 13.5% in the assay on Brassica napus [5].
As to `CC(C)N1CC(=O)/C(=C(/O)c2ccccc2Cl)C1=O`, the outcome in the assay with Echinochloa crus-galli [1] was Active. The inhibition of growth at 100 µg/mL in the assay on Echinochloa crus-galli [2] was found to be 77.9%; with Brassica napus [4] it was 66.8%. Besides, the inhibition of growth at 10 µg/mL in the assay on Echinochloa crus-galli [3] worked out at 51%; with Brassica napus [5] it was 38.9%.
Regarding `CC(C)N1CC(=O)/C(=C(/O)c2cccc([N+](=O)[O-])c2)C1=O`, the result in the assay on Echinochloa crus-galli [1] was inactive. The inhibition of growth at 100 µg/mL in the assay on Echinochloa crus-galli [2] turned out to be 42%; in the assay with Brassica napus [4], 70.3%. Moreover, the figures for the inhibition of growth at 10 µg/mL in the assay on Echinochloa crus-galli [3] and in the assay on Brassica napus [5] were 0% and 10.2%, respectively.
On to `COc1ccc(/C(O)=C2\C(=O)CN(C(C)(C)C)C2=O)cc1`, for which, in the assay on Echinochloa crus-galli [1], the result was Active. Moreover, the inhibition of growth at 100 µg/mL in the assay with Echinochloa crus-galli [2] was 80.3%; in the assay on Brassica napus [4] it was 77.7%. Moreover, the values for the inhibition of growth at 10 µg/mL with Echinochloa crus-galli [3] and in the assay with Brassica napus [5] were 78.7% and 5.4%, respectively.
Consider `CC(C)(C)N1CC(=O)/C(=C(/O)c2ccc([N+](=O)[O-])cc2)C1=O`, for which, in the assay with Echinochloa crus-galli [1], the outcome was inactive. In addition, the inhibition of growth at 100 µg/mL with Echinochloa crus-galli [2] turned out to be 9.8%; in the assay with Brassica napus [4], 48.1%. Moreover, the inhibition of growth at 10 µg/mL with Echinochloa crus-galli [3] is 0%; with Brassica napus [5], 1.8%.

(Values after ChEMBL document CHEMBL3044678, “The synthesis and herbicidal activity of 1-alkyl-3-(alpha-hydroxy-substituted benzylidene)pyrrolidine-2,4-diones” (2005).)
